Test results: patent US20260008783A1, “MODULATORS OF FSHR AND USES THEREOF” (Celmatix Inc., priority 2022, published 2026)

Target: T1, Follicle Stimulating Hormone Receptor (FSHR) (Homo sapiens, UniProt P23945)
T1 construct: HA (N); expressed in transfected cells; host or cells: CHO-K1, transient transfection, pHM6 vector (CMV promoter)
T1 sequence (P23945 18-695): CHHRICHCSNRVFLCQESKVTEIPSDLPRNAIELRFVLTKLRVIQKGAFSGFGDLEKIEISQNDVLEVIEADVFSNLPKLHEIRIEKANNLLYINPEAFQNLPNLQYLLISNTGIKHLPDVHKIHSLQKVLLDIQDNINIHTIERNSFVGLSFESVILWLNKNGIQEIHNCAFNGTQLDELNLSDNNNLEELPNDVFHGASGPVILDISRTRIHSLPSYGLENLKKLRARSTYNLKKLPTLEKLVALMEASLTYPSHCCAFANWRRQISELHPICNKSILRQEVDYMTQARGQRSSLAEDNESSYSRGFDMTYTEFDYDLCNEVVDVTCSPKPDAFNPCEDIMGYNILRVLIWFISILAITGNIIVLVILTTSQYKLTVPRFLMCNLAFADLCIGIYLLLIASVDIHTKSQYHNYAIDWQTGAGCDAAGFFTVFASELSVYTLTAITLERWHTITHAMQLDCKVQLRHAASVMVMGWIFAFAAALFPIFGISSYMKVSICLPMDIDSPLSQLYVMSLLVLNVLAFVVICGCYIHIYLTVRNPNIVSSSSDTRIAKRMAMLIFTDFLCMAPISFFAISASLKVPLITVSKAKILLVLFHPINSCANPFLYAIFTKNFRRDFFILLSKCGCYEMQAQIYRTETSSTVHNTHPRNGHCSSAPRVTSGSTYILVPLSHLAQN
Assay: HTRF cAMP agonist assay, FSHR, transiently transfected CHO-K1 cells
Assay type: cell-based
Settings: CHO-K1 cells transiently expressing human FSHR, read-out: IC50 FSHR LANCE CAMP

| Compound | IC50 [nM] |
| --- | --- |
| COc1cc2c(cc1-c1ccncc1)-c1c(c(C(=O)N3CCOCC3(C)C)nn1-c1cc(F)cc(F)c1)CC2 [Compound 15-09, [1-(3,5-difluorophenyl)-7-methoxy-8-(4-pyridyl)-4,5-dihydrobenzo[g]indazol-3-yl]-(3,3-dimethylmorpholin-4-yl)methanone] | 370 |
| COc1cc2c(cc1-c1ccc(=N)[nH]c1)-c1c(c(C(=O)N3CCOCC3(C)C)nn1-c1cc(F)cc(F)c1)CC2 [Compound 15-10] | 21.1 |
